Each block holds one molecule with its values, some of them ahead of it.
What was measured:
[1] = test system: CamKII neurons; assay: Cre-dependent (floxed) SNAR assay with CamKII:Cre; type: cell-based, mouse; conditions: FIG. 6C
Experimental: Plasmid Cloning. The SNAR construct was synthesized by first introducing 2 core SARE (cSARE) sequences into an AAV vector backbone that included the Arc minimal promoter and the Gaussia luciferase coding sequences using inFusion cloning. A single cSARE sequence was synthesized using a long primer that was then used as a PCR template. Two additional cSARE sequences were then added, one at a time preceding the first 2 cSAREs. The entire 4× cSARE-ArcMin-Gluc was then cloned as an insert into an FCK vector (Addgene, Watertown, Mass.; catalog no. 51694) using restriction enzymes PacI and EcoRI for use as a transfer plasmid and packaging into lentivirus particles. Secreted Nanoluciferase (sNluc) was obtained by adding the Ig-kappa signal peptide to its N-terminus using a long primer. sNluc was then inserted into an FCK vector with the hPGK promoter. Each construct was then cloned into a DIO vector backbone (Addgene, Watertown, Mass.; catalog no. 87168) to obtain a Cre-dependent expression construct. […]
Luciferase Assays. To determine luciferase activity luminescencence from media samples was measured. […] For substrates, Coelenterazine (CTZ)-native (NanoLight Technology, Pinetope, Ariz.; catalog no. 303) and FMZ (Promega NanoGlo Assay; Promega, Madison, Wis.; catalog no. N1110) were added using a micro-injector connected to the plate reader (BioTek Synergy HT; Winooski, Vt.). […]

[2] = test system: WT neurons; assay: Secreted Neuronal Activity Reporter (SNAR) dual secreted luciferase assay in primary neuronal cultures; type: cell-based, mouse; conditions: for effect of individual inhibitors on SNAR activity: prolonged treatment, FIG. 3A

effect of individual inhibitors on SNAR activity [2]: dramatically suppressed SNAR activity
Molecule: NC(CCCP(=O)(O)O)C(=O)O (centres unmarked) [AP5]
effect on reporter accumulation [1]: decrease in reporter accumulation similar to that of the non-specific reporter

effect on SNAR ([2]; 50 μM, FIG. 4A): reduced SNAR
Molecule: NC(=O)N1c2ccccc2C=Cc2ccccc21 [CBZ, carbamazepine]

time after treatment at which the increase in SNAR activity was observed ([2]; kinetic analysis, chronic blockage of AMPAR-mediated transmission, FIG. 3B): 16 to 40 h
effect of individual inhibitors on SNAR activity [2]: increased SNAR activity
Molecule: N#Cc1cc2[nH]c(=O)c(=O)[nH]c2cc1[N+](=O)[O-] [CNQX]

Molecule: N#CC(=C(/N)Sc1ccccc1N)/C(C#N)=C(\N)Sc1ccccc1N [U0126]
effect on SNAR activity / accumulation [2]: significantly suppressed SNAR accumulation

effect on reporter activity ([2]; 80 μM, at DIV14, FIG. 4A): significantly reduced reporter activity
Molecule: O=C1NC(=O)C(c2ccccc2)(c2ccccc2)N1 [phenytoin]

B1: BDNF: a neurotropic factor that enhances synapse formation and transmission (protein, UniProt P23560 19-247, looked up)
Neurotrophic factor BDNF …: APMKEANIRGQGGLAYPGVRTHGTLESVNGPKAGSRGLTSLADTFEHVIEELLDEDQKVRPNEENNKDADLYTSRVMLSSQVPLEPPLLFLLEEYKNYLDAANMSMRVRRHSDPARRGELSVCDSISEWVTAADKKTAVDMSGGTVTVLEKVPVSKGQLKQYFYETKCNPMGYTKEGCRGIDKRHWNSQCRTTQSYVRALTMDSKKRIGWRFIRIDTSCVCTLTIKRGR
effect on reporter activity compared to a vehicle control ([2]; 50 ng/mL, 16 hours and 40 hours after the treatment, FIG. 4B): significantly and robustly increased reporter activity

From patent US20220308044A1, “NOVEL LIVE-CELL ASSAY FOR NEURONAL ACTIVITY” (UNIVERSITY OF UTAH RESEARCH FOUNDATION, priority 2019, published 2022)
